Data reported in ChEMBL document CHEMBL5465560, “Selectivity Literature for EUbOPEN Chemogenomic Library” (2024).
Blank lines part the entries; values can stand above or below the compound they belong to.

Columns and labels:
[1] = molecular target: Dual specificity protein kinase CLK1 (Homo sapiens, UniProt P49759); details: at 10 µM
[2] = molecular target: Tyrosine-protein kinase BTK (Homo sapiens, UniProt Q06187); test: Selectivity interaction (ActivX KiNativ screen (kinase selectivity in THP-1 cell lysates)) EUB0000639a BTK; assay type: subcellular; details: lysate, at 0.2 µM
Sequence of Tyrosine-protein kinase BTK (Q06187 whole entry): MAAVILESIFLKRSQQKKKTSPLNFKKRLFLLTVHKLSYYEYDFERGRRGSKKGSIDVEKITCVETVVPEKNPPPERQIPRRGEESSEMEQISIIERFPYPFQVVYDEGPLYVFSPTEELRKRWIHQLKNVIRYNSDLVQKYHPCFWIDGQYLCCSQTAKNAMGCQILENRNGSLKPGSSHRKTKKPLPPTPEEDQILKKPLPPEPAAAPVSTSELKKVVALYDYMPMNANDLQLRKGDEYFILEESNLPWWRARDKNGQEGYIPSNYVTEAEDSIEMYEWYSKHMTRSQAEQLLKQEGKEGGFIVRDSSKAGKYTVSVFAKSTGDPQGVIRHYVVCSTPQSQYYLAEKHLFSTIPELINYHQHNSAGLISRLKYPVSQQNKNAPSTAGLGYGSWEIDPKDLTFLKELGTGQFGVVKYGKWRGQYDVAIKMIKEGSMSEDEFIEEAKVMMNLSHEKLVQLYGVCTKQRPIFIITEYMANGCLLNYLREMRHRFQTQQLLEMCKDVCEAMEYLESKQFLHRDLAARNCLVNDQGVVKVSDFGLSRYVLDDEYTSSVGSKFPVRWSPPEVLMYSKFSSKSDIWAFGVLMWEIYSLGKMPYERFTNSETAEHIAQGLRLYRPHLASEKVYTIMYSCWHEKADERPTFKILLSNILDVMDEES

[3] = molecular target: Tyrosine-protein kinase CSK (Homo sapiens) (UniProt P41240); test: Selectivity interaction (Kinase panel (Invitrogen)) EUB0000639a CSK; details: at 200 nM
Sequence of Tyrosine-protein kinase CSK (Homo sapiens) (P41240 2-450 limits assumed): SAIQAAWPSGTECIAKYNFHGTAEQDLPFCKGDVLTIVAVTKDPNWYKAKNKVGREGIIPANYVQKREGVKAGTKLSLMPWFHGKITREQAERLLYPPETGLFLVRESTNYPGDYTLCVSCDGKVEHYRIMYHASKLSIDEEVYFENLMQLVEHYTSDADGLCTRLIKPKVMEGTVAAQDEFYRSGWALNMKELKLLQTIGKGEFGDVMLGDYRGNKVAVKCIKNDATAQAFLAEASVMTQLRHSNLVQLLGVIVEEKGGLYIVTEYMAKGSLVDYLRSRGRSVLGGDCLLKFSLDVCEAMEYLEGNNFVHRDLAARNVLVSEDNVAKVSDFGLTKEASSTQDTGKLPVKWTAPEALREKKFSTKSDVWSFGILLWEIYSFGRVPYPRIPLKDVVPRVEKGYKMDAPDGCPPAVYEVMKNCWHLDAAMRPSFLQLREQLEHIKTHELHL

[4] = molecular target: T1, Dual specificity mitogen-activated protein kinase kinase 6 (Homo sapiens) (UniProt P52564); test: Selectivity interaction (ActivX KiNativ screen (kinase selectivity in THP-1 cell lysates)) EUB0000639a MAP2K6; assay type: subcellular; details: lysate, at 0.01 µM
T1 sequence (whole entry): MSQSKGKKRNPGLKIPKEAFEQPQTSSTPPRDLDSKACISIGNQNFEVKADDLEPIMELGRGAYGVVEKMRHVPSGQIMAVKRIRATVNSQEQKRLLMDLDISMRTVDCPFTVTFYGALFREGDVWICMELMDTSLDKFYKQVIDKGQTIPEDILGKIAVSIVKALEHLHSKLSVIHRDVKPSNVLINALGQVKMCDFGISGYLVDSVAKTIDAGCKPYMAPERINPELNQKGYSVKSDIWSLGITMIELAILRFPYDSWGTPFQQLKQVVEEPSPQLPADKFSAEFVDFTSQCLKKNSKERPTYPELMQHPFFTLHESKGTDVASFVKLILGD

[5] = molecular target: T2, Tyrosine-protein kinase Tec (Homo sapiens) (UniProt P42680); test: Selectivity interaction (Kinase panel (Invitrogen)) EUB0000639a TEC; details: at 200 nM
T2 sequence (whole entry): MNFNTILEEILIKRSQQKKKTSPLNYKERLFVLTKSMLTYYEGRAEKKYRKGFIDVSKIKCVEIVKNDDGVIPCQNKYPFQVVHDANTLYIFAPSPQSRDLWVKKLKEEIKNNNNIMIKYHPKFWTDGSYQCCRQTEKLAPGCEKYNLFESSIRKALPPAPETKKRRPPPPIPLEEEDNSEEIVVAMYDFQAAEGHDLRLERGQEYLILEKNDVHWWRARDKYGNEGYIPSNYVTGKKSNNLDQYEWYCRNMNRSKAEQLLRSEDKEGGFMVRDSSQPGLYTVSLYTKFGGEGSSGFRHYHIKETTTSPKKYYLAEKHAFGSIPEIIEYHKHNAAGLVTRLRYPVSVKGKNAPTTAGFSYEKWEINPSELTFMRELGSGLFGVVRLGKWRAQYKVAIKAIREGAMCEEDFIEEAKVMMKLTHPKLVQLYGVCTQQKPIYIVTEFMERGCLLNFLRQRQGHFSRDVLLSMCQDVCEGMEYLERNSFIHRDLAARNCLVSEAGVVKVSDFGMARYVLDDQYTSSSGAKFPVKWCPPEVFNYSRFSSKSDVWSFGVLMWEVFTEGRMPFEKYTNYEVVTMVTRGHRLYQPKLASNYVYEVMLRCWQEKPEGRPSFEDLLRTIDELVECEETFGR

[6] = molecular target: Mitogen-activated protein kinase 9 (Homo sapiens, UniProt P45984); test: Selectivity interaction (Kinase panel (literature)) EUB0001199aCl MAPK9; details: at 1 µM
Sequence of Mitogen-activated protein kinase 9 (P45984 whole entry, looked up): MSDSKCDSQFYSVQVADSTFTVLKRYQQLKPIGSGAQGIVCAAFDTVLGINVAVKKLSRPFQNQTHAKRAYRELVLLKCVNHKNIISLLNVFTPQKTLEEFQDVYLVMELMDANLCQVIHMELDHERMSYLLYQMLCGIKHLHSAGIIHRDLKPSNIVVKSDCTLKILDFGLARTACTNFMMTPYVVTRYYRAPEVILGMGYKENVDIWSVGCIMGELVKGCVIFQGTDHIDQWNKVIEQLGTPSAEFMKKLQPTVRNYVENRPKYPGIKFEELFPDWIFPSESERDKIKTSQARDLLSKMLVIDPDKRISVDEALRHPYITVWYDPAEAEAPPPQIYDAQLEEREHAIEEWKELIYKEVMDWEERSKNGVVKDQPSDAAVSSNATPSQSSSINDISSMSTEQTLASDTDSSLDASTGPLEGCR

[7] = molecular target: Serine/threonine-protein kinase SBK1 (Homo sapiens) (UniProt Q52WX2); test: Selectivity interaction (Kinase panel (Z-LYTE Assay)) EUB0001632a SBK1; details: at 10 µM
Sequence of Serine/threonine-protein kinase SBK1 (Homo sapiens) (Q52WX2 whole entry): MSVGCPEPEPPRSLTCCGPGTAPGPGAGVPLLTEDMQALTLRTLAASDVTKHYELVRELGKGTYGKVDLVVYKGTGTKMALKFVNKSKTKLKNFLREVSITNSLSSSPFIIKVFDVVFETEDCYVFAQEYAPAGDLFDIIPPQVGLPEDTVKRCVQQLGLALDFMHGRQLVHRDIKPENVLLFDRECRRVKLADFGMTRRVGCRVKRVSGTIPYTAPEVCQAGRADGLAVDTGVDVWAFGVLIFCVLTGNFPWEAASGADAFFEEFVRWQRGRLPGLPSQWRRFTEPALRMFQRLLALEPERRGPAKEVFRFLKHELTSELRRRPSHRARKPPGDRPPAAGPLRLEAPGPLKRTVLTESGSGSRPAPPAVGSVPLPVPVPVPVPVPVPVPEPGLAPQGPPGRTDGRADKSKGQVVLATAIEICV

[8] = molecular target: T3, Alpha-2A adrenergic receptor (Homo sapiens) (UniProt P08913); test: Selectivity interaction (GPCR panel (PDSP screen)) EUB0001079a ADRA2A; details: at 10 µM
T3 sequence (whole entry): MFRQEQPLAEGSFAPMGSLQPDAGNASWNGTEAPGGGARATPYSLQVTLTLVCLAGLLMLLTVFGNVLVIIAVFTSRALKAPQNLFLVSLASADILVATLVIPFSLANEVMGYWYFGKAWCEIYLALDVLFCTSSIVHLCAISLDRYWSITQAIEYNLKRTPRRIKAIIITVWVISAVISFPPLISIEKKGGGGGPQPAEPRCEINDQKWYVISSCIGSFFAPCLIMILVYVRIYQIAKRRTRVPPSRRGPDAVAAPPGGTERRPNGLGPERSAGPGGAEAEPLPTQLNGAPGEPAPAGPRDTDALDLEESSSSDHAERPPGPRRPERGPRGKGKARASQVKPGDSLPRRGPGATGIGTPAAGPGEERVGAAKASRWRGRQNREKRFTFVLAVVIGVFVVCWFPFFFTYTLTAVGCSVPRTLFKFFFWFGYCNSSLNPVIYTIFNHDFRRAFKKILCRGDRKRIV

[9] = molecular target: Serine/threonine-protein kinase 38-like (Homo sapiens) (UniProt Q9Y2H1); test: Selectivity interaction (KinomeScan (DiscoverX)) EUB0001079a STK38L; details: at 1 µM
Sequence of Serine/threonine-protein kinase 38-like (Homo sapiens) (Q9Y2H1 2-464 limits assumed): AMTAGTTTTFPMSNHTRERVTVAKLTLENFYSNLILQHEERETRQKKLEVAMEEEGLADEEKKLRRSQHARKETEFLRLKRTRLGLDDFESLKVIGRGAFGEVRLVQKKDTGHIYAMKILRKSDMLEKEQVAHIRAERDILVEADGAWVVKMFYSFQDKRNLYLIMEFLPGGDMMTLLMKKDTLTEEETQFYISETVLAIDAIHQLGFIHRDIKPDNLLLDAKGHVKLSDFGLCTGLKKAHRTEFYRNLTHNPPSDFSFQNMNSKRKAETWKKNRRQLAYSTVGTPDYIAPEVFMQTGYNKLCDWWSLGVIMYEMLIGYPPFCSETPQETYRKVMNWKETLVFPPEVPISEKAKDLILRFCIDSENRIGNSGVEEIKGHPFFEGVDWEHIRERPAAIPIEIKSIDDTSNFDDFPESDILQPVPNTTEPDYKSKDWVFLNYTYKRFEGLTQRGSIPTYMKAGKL

[10] = molecular target: Ephrin type-A receptor 7 (Homo sapiens) (UniProt Q15375); test: Selectivity interaction (KinomeScan (DiscoverX)) EUB0000655a EPHA7; details: at 10 µM
[11] = system: eIF-2-alpha kinase GCN2 (Homo sapiens), Q9P2K8 [S808G]; test: Selectivity interaction (KinomeScan (DiscoverX)) EUB0001619a EIF2AK4; details: at 1 µM
Sequence of eIF-2-alpha kinase GCN2 (Homo sapiens), Q9P2K8 [S808G] (Q9P2K8 whole entry S808G): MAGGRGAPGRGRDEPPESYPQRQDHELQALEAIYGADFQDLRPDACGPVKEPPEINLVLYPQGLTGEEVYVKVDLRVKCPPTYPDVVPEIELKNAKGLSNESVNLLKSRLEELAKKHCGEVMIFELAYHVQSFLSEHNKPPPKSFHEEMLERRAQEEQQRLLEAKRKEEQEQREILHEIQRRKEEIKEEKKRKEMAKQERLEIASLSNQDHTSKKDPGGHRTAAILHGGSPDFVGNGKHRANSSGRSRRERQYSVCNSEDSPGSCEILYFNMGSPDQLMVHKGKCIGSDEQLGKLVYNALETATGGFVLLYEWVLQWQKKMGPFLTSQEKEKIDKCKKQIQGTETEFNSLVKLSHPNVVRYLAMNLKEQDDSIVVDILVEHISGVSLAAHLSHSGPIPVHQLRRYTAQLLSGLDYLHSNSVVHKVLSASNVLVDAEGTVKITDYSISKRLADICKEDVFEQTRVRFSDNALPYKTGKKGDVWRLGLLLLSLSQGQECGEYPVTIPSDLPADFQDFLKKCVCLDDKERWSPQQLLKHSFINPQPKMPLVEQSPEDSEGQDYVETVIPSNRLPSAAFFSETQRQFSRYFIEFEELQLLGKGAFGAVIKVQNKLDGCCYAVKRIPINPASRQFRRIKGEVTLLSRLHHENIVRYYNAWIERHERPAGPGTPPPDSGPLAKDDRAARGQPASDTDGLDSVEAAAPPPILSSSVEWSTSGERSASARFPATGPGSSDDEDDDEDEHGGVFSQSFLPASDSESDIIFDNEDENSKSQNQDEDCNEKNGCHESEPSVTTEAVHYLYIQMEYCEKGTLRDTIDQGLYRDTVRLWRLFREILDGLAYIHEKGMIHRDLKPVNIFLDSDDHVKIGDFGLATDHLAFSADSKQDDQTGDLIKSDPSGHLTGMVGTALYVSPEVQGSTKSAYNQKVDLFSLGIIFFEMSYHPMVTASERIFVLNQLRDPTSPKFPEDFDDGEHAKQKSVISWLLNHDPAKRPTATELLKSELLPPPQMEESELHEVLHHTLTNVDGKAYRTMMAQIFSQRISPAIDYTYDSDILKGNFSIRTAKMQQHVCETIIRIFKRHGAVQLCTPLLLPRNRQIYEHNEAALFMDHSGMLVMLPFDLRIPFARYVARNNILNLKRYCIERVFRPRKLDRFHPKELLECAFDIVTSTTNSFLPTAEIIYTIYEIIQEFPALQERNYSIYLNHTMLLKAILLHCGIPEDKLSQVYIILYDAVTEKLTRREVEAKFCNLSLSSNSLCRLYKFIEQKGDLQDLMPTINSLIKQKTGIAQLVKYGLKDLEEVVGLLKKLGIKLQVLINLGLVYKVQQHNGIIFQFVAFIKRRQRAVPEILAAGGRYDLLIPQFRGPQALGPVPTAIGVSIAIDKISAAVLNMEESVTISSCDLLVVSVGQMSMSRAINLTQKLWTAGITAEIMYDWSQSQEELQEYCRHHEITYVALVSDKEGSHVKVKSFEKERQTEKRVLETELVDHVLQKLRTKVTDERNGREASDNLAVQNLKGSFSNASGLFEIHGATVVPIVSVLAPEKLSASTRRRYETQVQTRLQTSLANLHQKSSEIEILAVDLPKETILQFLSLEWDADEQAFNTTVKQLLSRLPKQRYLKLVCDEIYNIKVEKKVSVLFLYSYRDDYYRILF

[12] = molecular target: Dual specificity mitogen-activated protein kinase kinase 2 (Homo sapiens) (UniProt P36507); test: Selectivity interaction (KinomeScan (DiscoverX)) EUB0001619a MAP2K2; details: at 1 µM
Sequence of Dual specificity mitogen-activated protein kinase kinase 2 (Homo sapiens) (P36507 whole entry): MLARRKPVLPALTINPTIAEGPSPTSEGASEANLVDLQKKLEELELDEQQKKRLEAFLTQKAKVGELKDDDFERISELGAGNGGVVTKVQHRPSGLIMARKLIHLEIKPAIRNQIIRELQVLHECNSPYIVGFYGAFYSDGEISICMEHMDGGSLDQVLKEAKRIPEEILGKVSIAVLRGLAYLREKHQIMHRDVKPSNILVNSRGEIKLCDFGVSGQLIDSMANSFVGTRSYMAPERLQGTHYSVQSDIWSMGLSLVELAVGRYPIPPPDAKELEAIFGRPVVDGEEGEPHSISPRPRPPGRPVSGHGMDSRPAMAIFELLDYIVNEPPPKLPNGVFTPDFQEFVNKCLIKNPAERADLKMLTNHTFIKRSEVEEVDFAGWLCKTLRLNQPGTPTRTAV

[13] = molecular target: T4, Phosphatidylinositol 5-phosphate 4-kinase type-2 gamma (Homo sapiens) (UniProt Q8TBX8); test: Selectivity interaction (ActivX KiNativ screen (ex vivo kinase selectivity in human PBMCs)) EUB0001619a PIP4K2C; assay type: cell-based; details: PBMC, at 1 µM
T4 sequence (whole entry): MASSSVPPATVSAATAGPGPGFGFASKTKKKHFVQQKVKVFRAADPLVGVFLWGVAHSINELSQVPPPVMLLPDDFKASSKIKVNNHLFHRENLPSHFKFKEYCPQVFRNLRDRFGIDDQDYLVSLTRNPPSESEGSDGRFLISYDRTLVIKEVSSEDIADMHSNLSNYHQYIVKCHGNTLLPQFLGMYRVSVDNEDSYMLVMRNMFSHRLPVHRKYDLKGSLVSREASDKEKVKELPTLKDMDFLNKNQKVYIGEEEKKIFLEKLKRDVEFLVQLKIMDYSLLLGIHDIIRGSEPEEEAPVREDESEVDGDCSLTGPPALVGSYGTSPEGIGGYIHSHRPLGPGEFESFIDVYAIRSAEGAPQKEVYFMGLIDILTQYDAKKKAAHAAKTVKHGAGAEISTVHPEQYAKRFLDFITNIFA

Sequence of Dual specificity protein kinase CLK1 (P49759 whole entry, looked up): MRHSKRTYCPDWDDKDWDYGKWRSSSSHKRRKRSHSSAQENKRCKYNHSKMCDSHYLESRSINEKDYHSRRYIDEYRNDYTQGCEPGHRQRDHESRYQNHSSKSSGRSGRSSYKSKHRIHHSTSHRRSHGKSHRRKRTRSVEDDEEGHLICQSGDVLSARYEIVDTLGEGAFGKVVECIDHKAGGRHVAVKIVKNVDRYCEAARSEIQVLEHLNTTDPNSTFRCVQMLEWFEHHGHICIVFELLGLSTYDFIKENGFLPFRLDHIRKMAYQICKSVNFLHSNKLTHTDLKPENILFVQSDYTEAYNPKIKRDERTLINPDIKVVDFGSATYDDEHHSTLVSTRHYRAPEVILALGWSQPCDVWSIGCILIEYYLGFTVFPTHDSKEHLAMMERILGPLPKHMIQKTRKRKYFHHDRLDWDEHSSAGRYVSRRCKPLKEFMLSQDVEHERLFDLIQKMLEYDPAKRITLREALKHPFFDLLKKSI

SMILES: Cc1cc([C@@H](C)Nc2ccccc2C(=O)O)c2nc(N3CCOCC3)cc(=O)n2c1 [AZD-6482]
% of control [1]: 74%

% of inhibition [2]: -2.7%
% of inhibition [3]: 11.4%
% of inhibition [4]: 7.4%
% of inhibition [5]: -4.01%
SMILES: CC[C@@H]1[C@H](F)C(=O)N[C@@H]1COc1nccc2cc(C(N)=O)c(OC)cc12 [ZIMLOVISERTIB]

% of inhibition [6]: 18%
SMILES: CN1Cc2nccc(-c3cn(C)nc3-c3ccc(F)cc3)c2C1=O

% of control [7]: -0.405%
SMILES: Cn1cc(-n2cnc3c(NCc4nc5cc(Cl)c(Cl)cc5[nH]4)nc(N4CCOCC4)nc32)cn1

SMILES: Nc1cnc(N2CCc3cc(S(=O)(=O)Nc4c(F)cc(Cl)cc4F)cc(N4CCCC4=O)c32)nc1 [TP-020n]
% of inhibition [8]: -10.1%
% of control [9]: 42%

SMILES: CN(C)CCOc1ccc(-c2nc(-c3ccncc3)c(-c3ccc4c(c3)CC/C4=N\O)[nH]2)cc1
% of control [10]: 100%

SMILES: N#Cc1cccc(-c2c[nH]c3ncnc(N4CCOCC4)c23)c1
% of control [11]: 100%
% of control [12]: 19%
% of inhibition [13]: 54%
